Patent US11007183B2, “Cancer treatments using combinations of PI3K/Akt pathway and ERK inhibitors” (BIOMED VALLEY DISCOVERIES, INC., priority 2013, dated 2021)
Entries after “also recorded” stand apart in the source; their conditions may differ.

Experiments:
[1] = test system: HCT116 PIK3CA (+/−); experiment: Single agent proliferation assay (CellTiter-Glo, 72 h); assay type: cell-based, human; conditions: Homo sapiens, HCT-116, 72 h
Protocol: Cells were seeded in 96-well plates at the densities and media conditions indicated in Table 11 in McCoy's 5A containing either 10% FBS or 1% charcoal-stripped FBS (CS-FBS), and allowed to adhere overnight prior to addition of compound or vehicle control. […] The final DMSO concentration was constant at 0.1%. Test compounds were incubated with the cells for 72 h at 37° C., 5% CO2 in a humidified atmosphere. CellTiter-Glo® reagent (Promega, Madison, Wis.) was added according to manufacturer's instructions and luminescence detected using the BMG FLUOstar plate reader (BMG Labtech, Ortenberg, Germany). The average media only background value was deducted and the data analysed using a 4-parameter logistic equation in GraphPad Prism (GraphPad Software, La Jolla, Calif.).

[2] = test system: parental HCT116 cells; experiment: Combination proliferation assay (Loewe/Bliss); assay type: cell-based; conditions: Homo sapiens, HCT-116, 2.5% serum, mean of n=4 separate combinations, read-out: IC50 (single agent, derived from combination assay plates)
Protocol: Cells were seeded into triplicate 96-well plates at the densities indicated in Table 11 in McCoy's 5A media containing 2.5% FBS and allowed to adhere overnight prior to addition of test compound or vehicle control. Combinations were tested using either a 10×8 or for the follow-up HCT116 study a 3×1 dose matrix.
Test compounds were incubated with the cells for 72 h at 37° C., 5% CO2 in a humidified atmosphere. CellTiter-Glo® reagent (Promega, Madison, Wis.) was added according to manufacturer's instructions and luminescence detected using the BMG FLUOstar plate reader (BMG Labtech, Ortenberg, Germany). The average media only background value was deducted and the data analysed.
For the 10×8 combination assays the combination interactions across the dose matrix were determined by the Loewe Additivity and Bliss independence models using Chalice™ Combination Analysis Software (Horizon Discovery Group, Cambridge, Mass.) as outlined in the user manual (available at chalice.horizondiscovery.com/chalice-portal/documentation/analyzer/home.jsp). Synergy is determined by comparing the experimentally observed level of inhibition at each combination point with the value expected for additivity, which is derived from the single-agent responses along the edges of the matrix. […]

[3] = test system: HCT116 Parental; experiment: Single agent proliferation assay (CellTiter-Glo, 72 h); assay type: cell-based, human; conditions: Homo sapiens, HCT-116, 72 h
Protocol: Cells were seeded in 96-well plates at the densities and media conditions indicated in Table 11 in McCoy's 5A containing either 10% FBS or 1% charcoal-stripped FBS (CS-FBS), and allowed to adhere overnight prior to addition of compound or vehicle control. Compounds were prepared from DMSO stocks to give the desired final concentrations. The final DMSO concentration was constant at 0.1%. Test compounds were incubated with the cells for 72 h at 37° C., 5% CO2 in a humidified atmosphere. CellTiter-Glo® reagent (Promega, Madison, Wis.) was added according to manufacturer's instructions and luminescence detected using the BMG FLUOstar plate reader (BMG Labtech, Ortenberg, Germany). The average media only background value was deducted and the data analysed using a 4-parameter logistic equation in GraphPad Prism (GraphPad Software, La Jolla, Calif.).

[4] = test system: MAPK signaling in A375 cells; experiment: Western blot of MAPK signaling, cell cycle and apoptosis markers; assay type: cell-based, human
Protocol: For Western blot studies, HCT116 cells (5×10^6) were seeded into 10 cm dishes in McCoy's 5A plus 10% FBS. A375 cells (2.5×10^6) were seeded into 10 cm dishes in DMEM plus 10% FBS. Cells were allowed to adhere overnight prior to addition of the indicated amount of test compound (BVD-523) or vehicle control. Cells were treated for either 4 or 24 hours before isolation of whole-cell protein lysates, as specified below. Cells were harvested by trypsinisation, pelleted and snap frozen. Lysates were prepared with RIPA (Radio-Immunoprecipitation Assay) buffer, clarified by centrifugation and quantitated by bicinchoninic acid assay (BCA) assay. 20-50 μg of protein was resolved by SDS-PAGE electrophoresis, blotted onto PVDF membrane and probed using the antibodies detailed in Table 9 (for the 4-hour treatment) and Table 10 (for the 24-hour treatment) below.

[5] = test system: HCT116 PIK3CA (+/−) cells; experiment: Combination proliferation assay (Loewe/Bliss); assay type: cell-based, human; conditions: 2.5% serum
Protocol: Test compounds were incubated with the cells for 72 h at 37° C., 5% CO2 in a humidified atmosphere. CellTiter-Glo® reagent (Promega, Madison, Wis.) was added according to manufacturer's instructions and luminescence detected using the BMG FLUOstar plate reader (BMG Labtech, Ortenberg, Germany). The average media only background value was deducted and the data analysed. For the 10×8 combination assays the combination interactions across the dose matrix were determined by the Loewe Additivity and Bliss independence models using ChaliceTM Combination Analysis Software (Horizon Discovery Group, Cambridge, Mass.) as outlined in the user manual (available at chalice.horizondiscovery.com/chalice-portal/documentation/analyzer/home.jsp). Synergy is determined by comparing the experimentally observed level of inhibition at each combination point with the value expected for additivity, which is derived from the single-agent responses along the edges of the matrix. Potential synergistic interactions were identified by displaying the calculated excess inhibition over that predicted as being additive across the dose matrix as a heat map, and by reporting a quantitative 'Synergy Score' based on the Loewe model. The single agent data derived from the combination assay plates were presented as dose-response curves generated in GraphPad Prism (GraphPad Software, La Jolla, Calif.) (plotted using percentage viability relative to DMSO only treated controls). […] (Cbliss is the fractional inhibition that would be expected if the combination of the two drugs were exactly additive). Cbliss values were then subtracted from the experimentally observed fractional inhibition values to give an 'excess over Bliss' value which were plotted as heat maps±SD.

[6] = A375, prolonged (24 hours) treatment

`CC(C)Nc1cc(-c2c[nH]c(C(=O)N[C@H](CO)c3cccc(Cl)c3)c2)c(Cl)cn1` [BVD-523] was tested, and the IC50 ([1]; 1% CS-FBS) was 10 nM, the IC50 ([1]; 10% FBS) was 120 nM and the IC50 [2] was 130 nM. The IC50 ([3]; 1% CS-FBS) was 20 nM, the IC50 ([3]; 10% FBS) was 170 nM and the cyclin-D1 protein level ([4]; 24 hours (prolonged) treatment) was “greatly reduced”. The “MAPK feedback phosphatase DUSP6 protein level” value ([4]; 24 hours (prolonged) treatment, BRAF mutant cells) was “greatly reduced”, the “Apoptosis / PARP cleavage” value [4, 6] was “PARP protein cleavage and increased apoptosis were not noted; also recorded: increased apoptosis was not observed” and the Bim-EL level [4, 6] was “increased”. For the same molecule, the “Phosphorylation of ERK-dependent residues (T359/S363) in RSK 1 and 2” value ([4]; A375 BRAF mutant cell line, 4 hours, micromolar concentrations) was “reduced”, the “Concentrations required to induce changes in substrate phosphorylation and effector targets of ERK kinases” value ([4]; RAF and RAS mutant cancer cells in-vitro, acute and prolonged treatment) was “low micromolar range” and the “Cellular ERK enzyme activity” value ([4]; acute or prolonged treatment) was “fully inhibited”. For the same molecule, the “Single agent sensitivity relative to the parental line” value ([5]; HCT116 line lacking the PIK3CA mutation vs parental) was “more sensitive” and the IC50 ([5]; Homo sapiens, HCT-116, HCT116 PIK3CA (+/−), mean of n=4 separate combinations, read-out: IC50 (single agent, derived from combination assay plates)) was 40 nM.
